From US7615551B2, “Salicylate and gentisate salts of a piperazine compound” (Solvay Pharmaceuticals, B.V., priority 2005, dated 2009)

Experiments:
Water solubility = type: physicochemical; details: excess solid salt in water, equilibrated at least 24 hours, filtered, HPLC-UV; resulting pH 5.8
Method: Water solubility was determined by combining an excess amount of solid salt with ˜2 mL D1 water in a 4 mL glass screw-cap vial and equilibrating for at least 24 hours on an end-over-end rotator. The resulting suspensions were filtered through a 0.22 μm PVDF filter and assayed by high pressure liquid chromatography with quantitation by UV against standards of compound 1.

D2 receptors = D2 receptors (Homo sapiens, UniProt P14416); details: cited from earlier work
5HT reuptake = 5HT reuptake (Homo sapiens, UniProt P31645); details: in therapeutic models; cited from earlier work
catalepsy = details: rodents; cited from earlier work
[1] = in vivo; cited from earlier work

Sequence of 5HT reuptake (P31645 whole entry): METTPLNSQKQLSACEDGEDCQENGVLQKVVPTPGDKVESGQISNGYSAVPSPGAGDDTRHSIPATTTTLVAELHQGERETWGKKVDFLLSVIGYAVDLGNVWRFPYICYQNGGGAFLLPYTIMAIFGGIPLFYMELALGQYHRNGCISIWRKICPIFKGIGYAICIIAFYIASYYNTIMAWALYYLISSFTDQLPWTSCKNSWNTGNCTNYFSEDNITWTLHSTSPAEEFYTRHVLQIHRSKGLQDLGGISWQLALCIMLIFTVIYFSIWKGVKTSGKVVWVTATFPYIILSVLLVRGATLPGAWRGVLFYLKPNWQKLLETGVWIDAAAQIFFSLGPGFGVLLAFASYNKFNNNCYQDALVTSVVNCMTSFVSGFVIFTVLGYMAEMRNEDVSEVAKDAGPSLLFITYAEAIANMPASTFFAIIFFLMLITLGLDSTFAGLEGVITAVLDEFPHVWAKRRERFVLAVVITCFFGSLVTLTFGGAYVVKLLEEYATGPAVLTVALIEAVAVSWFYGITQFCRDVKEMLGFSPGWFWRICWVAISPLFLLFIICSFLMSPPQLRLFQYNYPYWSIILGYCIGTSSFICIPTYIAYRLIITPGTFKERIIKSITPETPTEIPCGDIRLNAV
Sequence of D2 receptors (P14416 whole entry): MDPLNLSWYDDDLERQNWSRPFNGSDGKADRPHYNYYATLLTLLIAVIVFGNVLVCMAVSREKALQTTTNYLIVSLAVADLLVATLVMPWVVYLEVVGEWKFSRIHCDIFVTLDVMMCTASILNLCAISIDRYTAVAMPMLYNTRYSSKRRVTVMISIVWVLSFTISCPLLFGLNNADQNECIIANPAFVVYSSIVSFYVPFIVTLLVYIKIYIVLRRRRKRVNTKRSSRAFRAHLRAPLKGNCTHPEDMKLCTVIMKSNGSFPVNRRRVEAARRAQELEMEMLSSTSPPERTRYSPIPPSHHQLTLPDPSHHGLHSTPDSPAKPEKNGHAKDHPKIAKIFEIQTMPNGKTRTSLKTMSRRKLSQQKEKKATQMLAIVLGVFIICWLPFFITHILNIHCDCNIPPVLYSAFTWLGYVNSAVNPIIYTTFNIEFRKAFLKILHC

Row | Structure (SMILES) | water solubility (Water solubility) | activity at D2 receptors (D2 receptors) | activity against 5HT reuptake (5HT reuptake) | propensity to induce catalepsy (catalepsy) | activity in therapeutic models sensitive to antipsychotics, antidepressants, anxiolytics, Parkinson's disease [1]
1 | CC1Oc2c(cccc2N2CCN(CCCc3c[nH]c4ccc(F)cc34)CC2)NC1=O (stereo not drawn) [compound 2] | 1600 µg/mL (freebase equivalent) |  |  |  | 
2 | CC1Oc2c(cccc2N2CCN(CCCc3c[nH]c4ccc(F)cc34)CC2)NC1=O (stereo not drawn) [compound 3] | 500 µg/mL (freebase equivalent) |  |  |  | 
3 | CC1Oc2c(cccc2N2CCN(CCCc3c[nH]c4ccc(F)cc34)CC2)NC1=O (stereo not drawn) [compound 1, 8-{4-[3-(5-fluoro-1H-indol-3-yl)-propyl]-piperazin-1-yl}-2-methyl-4H-benzo[1,4]oxazin-3-one] |  | antagonistic activity | inhibitory activity | low propensity to induce catalepsy | active
